The record followed here is patent US20230106506A1, “NOVEL PqsR INVERSE AGONISTS” (Helmholtz-Zentrum Fur Infektionsforschung GmbH, priority 2020, published 2023).

Series [1] deals with P. aeruginosa pyocyanin production. Kind of series: Pyocyanin assay. It counts as cell-based, P. aeruginosa strain PA14. The conditions noted are these: Pseudomonas aeruginosa, PA14, 16 h, read-out: IC50-value towards pyocyanin production. As to the method: Inhibition of P. aeruginosa pyocyanin production by compounds was determined photometrically as described before. In short, an overnight culture of PA14 in PPGAS medium was washed, diluted in medium to a start OD600 of 0.02, and incubated for 16 h (37° C., 200 rpm, relative humidity 75%) in the presence of test compounds. Then, cultures were extracted with chloroform and re-extracted with 0.2 M HCl. Protonated red colored pyocyanin was determined by measuring OD520 and normalizing to OD600.

Series [2] is described as follows: Kinetic turbidimetric aqueous solubility. It counts as physicochemical. Particulars: aqueous buffer, kinetic from dmso stock; PBS buffer, final DMSO 2%, absorbance 620 nm; read-out: Kinetic Turbidimetric Aqueous Solubility at room temperature for 5 min. As to the method:
Kinetic Turbidimetric Aqueous Solubility at room temperature for 5 min. […] Data was analyzed by fitting a four parameter sigmoidal function to the measured and normalized absorbances and AUC calculation providing access to Log S (decadic logarithm of the solubility).

A short description of series [3]: Metabolic stability in mouse liver microsomes (MLM). It counts as in vitro ADME. The conditions noted are these: 1 μM compound, 0.5 mg/mL MLM, 1 mM NADPH, 37° C., read-out: half-life (t1/2) towards MLM. How it is done:
For the evaluation of phase I metabolic stability, the compound (1 μM) was incubated with 0.5 mg/mL MLM (Corning) and 1 mM NADPH at 37° C. for 0, 5, 10, 15 and 30 min. The metabolic stability of Verapamil, Diphenhydramine and Benzydamine (1 μM each) were determined in parallel to confirm the enzymatic activity of the MLM. The incubation was stopped by addition of 2 volumes of acetonitrile containing internal standard (1 μM Leucine Enkephaline). Samples were centrifuged (15 min, 3,500 rpm). Concentration of the remaining test compound at the different time points was analyzed by HPLC-MS/MS and used to determine half-life (t1/2).
Background: Liver microsomes are vesicles of endoplasmic reticulum, rich in cytochrome P450 enzymes.

Consider `N#Cc1cc(-c2ncc(CNc3cc(-c4cn[nH]c4)nc(C(F)(F)F)c3)cn2)ccc1Cl` [Compound 50, 5-(5-(((2-(1H-Pyrazol-4-yl)-6-(trifluoromethyl)pyridin-4-yl)amino)methyl)pyrimidin-2-yl)-2-chlorobenzonitrile], for which the IC50 in series [1] lay in the range of 101 to 200 nM. On to `N#Cc1cc(-c2ncc(CNc3cc(-c4cn[nH]c4)nc(C(F)(F)F)c3)cn2)ccc1F` [Compound 38, 5-(5-(((2-(1H-Pyrazol-4-yl)-6-(trifluoromethyl)pyridin-4-yl)amino)methyl)pyrimidin-2-yl)-2-fluorobenzonitrile], for which the 50% inhibitory concentration (IC50) in series [1] is 101 to 200 nM. Further, in series [2], the solubility at 5 min was over 25 µM.

In the case of `CC(C)Oc1ccc(-c2ncc(CNc3cc(-c4cncs4)nc(C(F)(F)F)c3)cn2)cc1` [Compound 70, N-((2-(4-Isopropoxyphenyl)pyrimidin-5-yl)methyl)-2-(thiazol-5-yl)-6-(trifluoromethyl)pyridin-4-amine], in series [1], the half-inhibitory concentration (IC50) fell in the range of 101 to 200 nM. In series [3], the half-life at 1 µM is over 1.67 h. On to `CC(C)Oc1ccc(-n2cc(CNc3cc(-c4cn[nH]c4)nc(C(F)(F)F)c3)nn2)cc1` [Compound 05, N-((1-(4-Isopropoxyphenyl)-1H-1,2,3-triazol-4-yl)methyl)-2-(1H-pyrazol-4-yl)-6-(trifluoromethyl)pyridin-4-amine], for which the solubility at 5 min in series [2] is over 25 µM. On to `CC(C)Oc1ccc(-c2cnc(CNc3cc(-c4cn[nH]c4)nc(C(F)(F)F)c3)nc2)cc1` [Compound 40, N-((5-(4-Isopropoxyphenyl)pyrimidin-2-yl)methyl)-2-(1H-pyrazol-4-yl)-6-(trifluoromethyl)pyridin-4-amine], for which the IC50 in series [1] fell in the range of 201 to 500 nM. In series [2], the solubility at 5 min was over 10 µM.

Turning to `Fc1cccc(Oc2ccc(-c3ncc(CNc4cc(-c5cn[nH]c5)nc(C(F)(F)F)c4)cn3)cc2)c1` [Compound 52, N-((2-(4-(3-Fluorophenoxy)phenyl)pyrimidin-5-yl)methyl)-2-(1H-pyrazol-4-yl)-6-(trifluoromethyl)pyridin-4-amine], in series [1], the IC50 is 101 to 200 nM. Moreover, the half-life at 1 µM in series [3] was over 1.67 h.

As for `FC(F)(F)c1cc(NCc2cnc(-c3ccc(Oc4ccc(Cl)cc4)cc3)nc2)cc(-c2cn[nH]c2)n1` [Compound 54, N-((2-(4-(4-Chlorophenoxy)phenyl)pyrimidin-5-yl)methyl)-2-(1H-pyrazol-4-yl)-6-(trifluoromethyl)pyridin-4-amine], the solubility at 5 min in series [2] was over 10 µM. Moreover, the half-life at 1 µM in series [3] was over 1.67 h. Regarding `CC(C)Oc1ccc(-c2ncc(CNc3cc(-n4ccnc4)nc(C(F)(F)F)c3)cn2)cc1` [Compound 29, 2-(1H-Imidazol-1-yl)-N-((2-(4-isopropoxyphenyl)pyrimidin-5-yl)methyl)-6-(trifluoromethyl)pyridin-4-amine], the concentration for half-maximal inhibition (IC50) in series [1] lay in the range of 101 to 200 nM. In series [3], the half-life at 1 µM is over 1.67 h. In the case of `CC(C)Oc1ccc(-c2cnc(CNc3cc(-n4cncn4)nc(C(F)(F)F)c3)nc2)cc1Cl` [Compound 43, N-((5-(3-Chloro-4-isopropoxyphenyl)pyrimidin-2-yl)methyl)-2-(1H-1,2,4-triazol-1-yl)-6-(trifluoromethyl)pyridin-4-amine], the solubility at 5 min in series [2] is over 10 µM. Also, the half-life at 1 µM in series [3] was over 1.67 h. As for `CC(C)Oc1ccc(-c2cnc(CNc3cc(-n4cncn4)nc(C(F)(F)F)c3)nc2)cc1` [Compound 42, N-((5-(4-Isopropoxyphenyl)pyrimidin-2-yl)methyl)-2-(1H-1,2,4-triazol-1-yl)-6-(trifluoromethyl)pyridin-4-amine], the 50% inhibitory concentration (IC50) in series [1] lay in the range of 201 to 500 nM. Moreover, the half-life at 1 µM in series [3] was over 1.67 h. `FC(F)(F)c1cc(SCc2nc3cc(Oc4ccccc4)ccc3[nH]2)cc(-n2ccnc2)n1` [Compound 62, 2-(((2-(1H-Imidazol-1-yl)-6-(trifluoromethyl)pyridin-4-yl)thio)methyl)-5-phenoxy-1H-benzo[d]imidazole]: the IC50 in series [1] is 201 to 500 nM.

For `FC(F)(F)c1nc(SCc2nc3cc(Oc4ccccc4)ccc3[nH]2)cc(-n2ccnc2)n1` [Compound 63, 2-(((6-(1H-Imidazol-1-yl)-2-(trifluoromethyl)pyrimidin-4-yl)thio)methyl)-5-phenoxy-1H-benzo[d]imidazole], the solubility at 5 min in series [2] was over 10 µM. As for `CC(C)Oc1ccc(-c2ccc(CNc3cc(-n4cncn4)nc(C(F)(F)F)c3)nc2)cc1Cl` [Compound 26, N-((5-(3-Chloro-4-isopropoxyphenyl)pyridin-2-yl)methyl)-2-(1H-1,2,4-triazol-1-yl)-6-(trifluoromethyl)pyridin-4-amine], the IC50 in series [1] fell in the range of 201 to 500 nM. Besides, in series [3], the half-life at 1 µM was over 1.67 h. For the compound `CC(C)Oc1ccc(-c2cnc(CNc3cc(-n4ccnc4)nc(C(F)(F)F)c3)nc2)cc1` [Compound 45, 2-(1H-Imidazol-1-yl)-N-((5-(4-isopropoxyphenyl)pyrimidin-2-yl)methyl)-6-(trifluoromethyl)pyridin-4-amine], the IC50 in series [1] was in the range of 201 to 500 nM. Further, the half-life at 1 µM in series [3] is over 1.67 h. Turning to `CC(C)Oc1ccc(-c2ncc(CNc3cc(-c4cc[nH]n4)nc(C(F)(F)F)c3)cn2)cc1Cl` [Compound 32, N-((2-(3-Chloro-4-isopropoxyphenyl)pyrimidin-5-yl)methyl)-2-(1H-pyrazol-3-yl)-6-(trifluoromethyl)pyridin-4-amine], the IC50 in series [1] is 201 to 500 nM. The half-life at 1 µM in series [3] was in the range of 1.02 to 1.67 h.

In the case of `FC(F)(F)c1cc(SCc2nc3cc(Oc4ccccc4)ccc3[nH]2)cc(-c2cn[nH]c2)n1` [Compound 64, 2-(((2-(1H-pyrazol-4-yl)-6-(trifluoromethyl)pyridin-4-yl)thio)methyl)-5-phenoxy-1H-benzo[d]imidazole], the IC50 in series [1] lay within 101 to 200 nM. Besides, the solubility at 5 min in series [2] was over 10 µM.

Consider `N#Cc1cccc(-c2ncc(CNc3cc(-c4cn[nH]c4)nc(C(F)(F)F)c3)cn2)c1` [Compound 36, 3-(5-(((2-(1H-Pyrazol-4-yl)-6-(trifluoromethyl)pyridin-4-yl)amino)methyl)pyrimidin-2-yl)benzonitrile], for which the IC50 in series [1] fell in the range of 201 to 500 nM. In addition, the solubility at 5 min in series [2] was over 25 µM.

For `CC(C)Oc1ccc(-n2cc(CNc3cc(-n4cncn4)nc(C(F)(F)F)c3)nn2)cc1` [Compound 06, N-((1-(4-Isopropoxyphenyl)-1H-1,2,3-triazol-4-yl)methyl)-2-(1H-1,2,4-triazol-1-yl)-6-(trifluoromethyl)pyridin-4-amine], the solubility at 5 min in series [2] is over 10 µM. Moreover, the half-life at 1 µM in series [3] was 1.02 to 1.67 h. Regarding `CC(C)Oc1ccc(-c2ccc(CNc3cc(-n4cncn4)nc(C(F)(F)F)c3)nc2)cc1` [Compound 25, N-((5-(4-Isopropoxyphenyl)pyridin-2-yl)methyl)-2-(1H-1,2,4-triazol-1-yl)-6-(trifluoromethyl)pyridin-4-amine], the half-maximal inhibitory concentration (IC50) in series [1] lay within 101 to 200 nM. Also, the half-life at 1 µM in series [3] was over 1.67 h. The matching figures for `CC(C)Oc1ccc(-c2ncc(CNc3cc(-n4cncn4)nc(C(F)(F)F)c3)cn2)cc1` [Compound 59, N-((2-(4-Isopropoxyphenyl)pyrimidin-5-yl)methyl)-2-(1H-1,2,4-triazol-1-yl)-6-(trifluoromethyl)pyridin-4-amine]: 101 to 200 nM and over 1.67 h.

As for `Cc1ccc(-c2ncc(CNc3cc(-c4cn[nH]c4)nc(C(F)(F)F)c3)cn2)cc1C#N` [Compound 37, 5-(5-(((2-(1H-Pyrazol-4-yl)-6-(trifluoromethyl)pyridin-4-yl)amino)methyl)pyrimidin-2-yl)-2-methylbenzonitrile], the IC50 in series [1] lay in the range of 101 to 200 nM. In addition, the solubility at 5 min in series [2] was over 10 µM. Take `CC(C)Oc1ccc(-c2cnc(CNc3cc(-c4cnn(C)c4)nc(C(F)(F)F)c3)nc2)cc1` [Compound 44, N-((5-(4-Isopropoxyphenyl)pyrimidin-2-yl)methyl)-2-(1-methyl-1H-pyrazol-4-yl)-6-(trifluoromethyl)pyridin-4-amine]: in series [1], the half-maximal inhibitory concentration (IC50) fell in the range of 201 to 500 nM. Moreover, in series [3], the half-life at 1 µM is over 1.67 h. As for `CC(C)Oc1ccc(-c2ncc(CNc3cc(-c4nn[nH]n4)nc(C(F)(F)F)c3)s2)cc1` [Compound 19], the solubility at 5 min in series [2] is at least 100 µM. For the same compound, the half-life at 1 µM in series [3] is over 1.67 h. For `Fc1ccc(Oc2ccc(-c3ncc(CNc4cc(-c5cn[nH]c5)nc(C(F)(F)F)c4)cn3)cc2)cc1` [Compound 53, N-((2-(4-(4-Fluorophenoxy)phenyl)pyrimidin-5-yl)methyl)-2-(1H-pyrazol-4-yl)-6-(trifluoromethyl)pyridin-4-amine], the 50% inhibitory concentration (IC50) in series [1] was 101 to 200 nM. Besides, in series [3], the half-life at 1 µM is over 1.67 h.

`CC(C)Oc1ccc(-c2cnc(CNc3cc(-n4ccnc4)nc(C(F)(F)F)c3)nc2)cc1Cl` [Compound 46, N-((5-(3-Chloro-4-isopropoxyphenyl)pyrimidin-2-yl)methyl)-2-(1H-imidazol-1-yl)-6-(trifluoromethyl)pyridin-4-amine]: in series [1], the concentration for half-maximal inhibition (IC50) was in the range of 201 to 500 nM. Further, the half-life at 1 µM in series [3] was in the range of 1.02 to 1.67 h. With `CC(C)Oc1ccc(-c2ccc(CNc3cc(-c4cn[nH]c4)nc(C(F)(F)F)c3)nn2)cc1` [Compound 22, N-((6-(4-Isopropoxyphenyl)pyridazin-3-yl)methyl)-2-(1H-pyrazol-4-yl)-6-(trifluoromethyl)pyridin-4-amine], the IC50 in series [1] was in the range of 201 to 500 nM. Moreover, the solubility at 5 min in series [2] is over 25 µM.

Usually IC50 stands for the midpoint of a concentration-inhibition curve. The term solubility denotes the dissolved amount per volume that the medium holds.
